Measured values published in US20240315987A1, “ORAL CO[…] COMBINED WITH S[…] I[…] FOR USE IN THE TREATMENT, CONTROL OR PREVENTION OF DEPRESSIVE DISORDERS” (N[…] LTD., priority 2020, published 2024).
Like-named read-outs stand apart in the source and are kept apart here.

Assays:
mice = conditions: cited from earlier work
[1] = target: T1, α7 nicotinic acetylcholine receptor (Rattus norvegicus, UniProt Q05941); conditions: cited from earlier work
T1 construct: expressed in transfected cells; host or cells: KXa7R1 cell line (HEK293)
T1 sequence (Q05941 23-502): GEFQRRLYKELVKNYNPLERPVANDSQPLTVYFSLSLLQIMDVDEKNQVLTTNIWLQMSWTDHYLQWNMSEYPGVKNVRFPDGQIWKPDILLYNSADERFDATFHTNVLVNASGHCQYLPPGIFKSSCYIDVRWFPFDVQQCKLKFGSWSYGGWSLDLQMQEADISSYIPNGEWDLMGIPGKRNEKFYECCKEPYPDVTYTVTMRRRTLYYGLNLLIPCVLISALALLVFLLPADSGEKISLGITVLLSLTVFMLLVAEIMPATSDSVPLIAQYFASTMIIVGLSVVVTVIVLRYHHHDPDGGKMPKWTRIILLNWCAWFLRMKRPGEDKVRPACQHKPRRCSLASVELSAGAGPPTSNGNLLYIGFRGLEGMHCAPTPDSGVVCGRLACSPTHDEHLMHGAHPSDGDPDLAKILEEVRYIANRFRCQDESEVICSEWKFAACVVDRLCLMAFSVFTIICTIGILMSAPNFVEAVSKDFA

[2] = test system: Major Depression Disorder (MDD) and Treatment-resistant depression (TRD); conditions: single IV administration, subanaesthetic dose 0.5 mg/kg; cited from earlier work
[3] = cited from earlier work
[4] = test system: Treatment Resistant Depression (TRD); assay: Example 5 pilot study: combined subcutaneous/IV and oral ketamine in TRD patients; type: in vivo, human; conditions: for mean MADRS reduction: TRD patients
Procedure: Six patients diagnosed with Treatment Resistant Depression (TRD) received a combined ketamine treatment as outlined below. Their mean age was 53.1 (SD: 9.3). Five of the patients had previously attempted suicide and been admitted to a psychiatric unit. Three patients had received electroconvulsive therapy (ECT).
Five of the patients received oral ketamine of dose range 120-240 mg, (for example three to six capsules of 40 mg/day as described herein), once a week, four days after ketamine subcutaneous (0.5 mg-1.0 mg/kg) was administered once a week.
One patient received ketamine intravenously once a week and oral ketamine twice a week of dose 240 mg (for example, six capsules of 40 mg/day as described herein) each time.
The patients received on average 30.8 weeks (SD:7.7) ketamine subcutaneous-oral treatment and 10.6 weeks (SD: 6.7) ketamine IV-oral treatment.
This pilot study was conducted to explore the safety, tolerability, and potential clinical effectiveness of a treatment with repeated, low-dose oral ketamine capsules.

depression = conditions: oral, 2019 systematic review; cited from earlier work
[5] = test system: depressive disorder patients; assay: Example 6: subcut/IV ketamine with supplemental oral dose, then oral only; type: in vivo, human
Procedure: Patients (n=12 patients) were administered a ketamine-based treatment comprising a subcut/IV ketamine dose with a supplemental oral dose (as described herein).

**Q.** For `N[C@@]1(c2ccccc2Cl)CCC[C@@H](O)C1=O` [(2R,6R)-HNK], which antidepressant-like effects (mice) is on record?
**A.** ketamine-type antidepressant-like effects

**Q.** With `NC1(c2ccccc2Cl)CCC=CC1=O` (stereo not shown) [dehydronorketamine] as the compound, how does the IC50 ([1]; KXa7R1 cell line (HEK293 cells transfected with rat nicotinic acetylcholine receptor genes)) read?
**A.** 55 nM

**Q.** And the “potency as negative allosteric modulator” value ([1]; KXa7R1 cell line)?
**A.** subanaesthetic and nanomolar potencies

**Q.** Which “potency as negative allosteric modulator” value ([1]; KXa7R1 cell line) does the source give for `NC1(c2ccccc2Cl)CCCC(O)C1=O` (stereo not shown) [hydroxynorketamine] here?
**A.** subanaesthetic and nanomolar potencies

**Q.** For `CNC1(c2ccccc2Cl)CCCCC1=O` (stereo not shown) [ketamine, Ketamine], which “activity at the same concentrations” value ([1]; KXa7R1 cell line, <1 μM) is on record?
**A.** inactive

**Q.** What about the “duration of antidepressant effect” value [2] of the same compound?
**A.** 4 to 7 days

**Q.** What about the “time to antidepressant action” value [2] of the same compound?
**A.** ≤ 24 h

**Q.** What about the Bioavailability ([3]; intranasally) of the same compound?
**A.** 8-50%

**Q.** What about the “time to peak plasma concentrations” value ([3]; intravenously) of the same compound?
**A.** within a minute

**Q.** What about the Bioavailability ([3]; oral route) of the same compound?
**A.** 17-20%

**Q.** What about the “time to peak plasma concentrations” value ([3]; orally) of the same compound?
**A.** 30 min

**Q.** What about the Bioavailability ([3]; rectally) of the same compound?
**A.** up to 30%

**Q.** What about the Bioavailability ([3]; sublingually) of the same compound?
**A.** up to 30%

**Q.** And the “response and tolerability of the treatment regimens” value ([4]; after 45 to 75 minutes after dosing)?
**A.** good response and tolerability in all patients

**Q.** What about the “mean MADRS reduction” value ([4]; between first and last treatment, subcutaneous-oral ketamine treatment) of the same compound?
**A.** −5.7 (SD: 11.0)

**Q.** What about the “mean MADRS reduction” value ([4]; intravenous-oral ketamine treatment) of the same compound?
**A.** −5.7 (SD: 10.0)

**Q.** What about the “duration of significant improvement of cognition” value ([4]; one patient, ketamine IV once a week and oral ketamine twice a week 240 mg) of the same compound?
**A.** 24 to 36 h

**Q.** What about the “severity of adverse events” value ([4]; repeated, low-dose oral ketamine capsules) of the same compound?
**A.** Most adverse events were moderate and self-limiting

**Q.** And the “ketamine cravings or urge to use beyond the prescribed period” value ([4]; six TRD patients)?
**A.** No participant reported ketamine cravings

**Q.** And the “onset of moderate discomforts or moderate increase of pre-existing discomforts, reports” value ([4]; six TRD patients)?
**A.** 32 times

**Q.** What about the “positive effects (reduction of suicidal thoughts, improved mood, cognition, increased energy)” value ([4]; six TRD patients) of the same compound?
**A.** Most of the participants reported positive effects

**Q.** And the “premature discontinuation of treatment” value ([4]; six TRD patients)?
**A.** none of the participants discontinued treatment prematurely

**Q.** And the serious side effects ([4]; six TRD patients)?
**A.** No serious side effects occurred

**Q.** What about the “tolerability of treatment with oral ketamine” value ([4]; six TRD patients) of the same compound?
**A.** well-tolerated

**Q.** And the antidepressant effects (depression)?
**A.** significant antidepressant effects

**Q.** What about the tolerability (depression) of the same compound?
**A.** good overall tolerability

**Q.** And the “response to oral ketamine after stopping initial IV or subcutaneous ketamine treatment” value ([5]; especially oral twice a week at 160-240 mg)?
**A.** respond very well

**Q.** And the “remission levels after switch to oral only treatment” value ([5]; n=12 patients, oral only)?
**A.** maintained their remission levels at the same level as when administered the combination treatment

**Q.** What about the “remission via MADRS scores” value ([5]; n=12 patients, subcut/IV ketamine dose with supplemental oral dose) of the same compound?
**A.** ~50%

**Q.** What does the source list for `NC1(c2ccccc2Cl)CCCCC1=O` (stereo not shown) [norketamine]?
**A.** potency as negative allosteric modulator ([1]; KXa7R1 cell line): subanaesthetic and nanomolar potencies; plasma levels of metabolite relative to ketamine ([3]; following oral administration of ketamine): three times higher than ketamine
